In patent US20030157084A1, “Methods for preparing purified prostaglandin E synthase” (priority 2001, published 2003):
Entries after “also recorded” stand apart in the source; their conditions may differ.

Experiments:
purified His6-hPGES [1] = molecular target: T1, purified His6-hPGES (Homo sapiens, UniProt O14684); experiment: LTC4 synthase activity of purified His6-hPGES with LTA4; format: biochemical; design: made in house; host or cells: E. coli BL21(DE3) with pLysSL; settings: 37 ° C.; up to 100 μg/ml enzyme, 30 μM LTA4, 10 mM GSH, pH 7.4
T1 sequence (O14684 1-152): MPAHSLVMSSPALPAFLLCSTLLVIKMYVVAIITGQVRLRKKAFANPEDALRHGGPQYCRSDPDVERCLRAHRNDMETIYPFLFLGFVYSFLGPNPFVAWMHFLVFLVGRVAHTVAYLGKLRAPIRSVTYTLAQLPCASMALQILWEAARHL

purified His6-hPGES [2] = molecular target: T1, purified His6-hPGES; experiment: Glutathione transferase (GST) activity of purified His6-hPGES with CDNB; format: biochemical; design: made in house; host or cells: E. coli BL21(DE3) with pLysSL; settings: purified His6-hPGES incubated with LTA4
Experimental: Glutathione transferase (GST) activity (glutathione conjugation) was assayed with the classical model substrate for GSTs, p-chloro-2,4-dinitrobenzene (CDNB). […] Formation of product was detected at 340 nm (molar absorption coefficient for the product, GS-DNB, is 9.6 mM^−1 cm^−1).

[3] = Kinetic properties of other enzymes with PGE synthase activity (literature); format: biochemical; settings: cytosolic PGES versus His6-hPGES
[4] = 24° C.; Tanioka et al. (2000); cited from earlier work

Molecule | Specific activity (LTC4 synthase activity) (purified His6-hPGES [1]) | GST activity after incubation of the enzyme with LTA4 (purified His6-hPGES [2]) | Vmax compared with specific activity of purified His6-hPGES, times lower [3] | published Vmax [4] [µmol/min/mg]
CCCCC/C=C\C\C=C/C=C/C=C/[C@@H]1O[C@H]1CCCC(=O)O [LTA4, leukotriene (LT) A4] | No activity above background could be detected; also recorded: Not detectable above background | no GST activity could be detected |  | 
Cytosolic PGES LPS-induced: enzyme with PGE synthase activity, Rat, brain (Tanioka et al. 2000); recently identified cytosolic PGES (protein, UniProt P83868 1-160, looked up) Prostaglandin E synthase 3: MQPASAKWYDRRDYVFIEFCVEDSKDVNVNFEKSKLTFSCLGGSDNFKHLNEIDLFHCIDPNDSKHKRTDRSILCCLRKGESGQSWPRLTKERAKLNWLSVDFNNWKDWEDDSDEDMSNFDRFSEMMDHMGGDEDVDLPEVDGADDDSQDSDDEKMPDLE |  |  | about 1,000 times | 0.19
